Laboratory results as given in ChEMBL document CHEMBL1201862, “PubChem BioAssay data set” (2004).
Activity calls are given as the source filed them.

Experiments:
[1] = molecular target: Beta-galactosidase (Escherichia coli, UniProt Q8VNN2); assay: Dose response counterscreen for EBI2 assay utilizing the enzyme, b-galactosidase.; format: functional
[2] = molecular target: T1, Protein Tat (Human immunodeficiency virus type 1 group M subtype B (isolate HXB2)(HIV-1), UniProt P04608); format: functional;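 further: tat binding to TAR RNA read out by fluorescence polarization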
T1 sequence (P04608 whole entry): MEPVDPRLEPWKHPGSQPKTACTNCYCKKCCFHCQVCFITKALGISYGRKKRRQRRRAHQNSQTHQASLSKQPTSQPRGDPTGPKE

[3] = blockers of HIV-1 envelope-mediated cell-cell fusion – cherry-pick, dose response (AID 652057); format: functional, cell-based
[4] = viability loss in CEM21 cells – cell-based, CellTiter-Glo luminescence, cherry-picked, cytotoxicity control for viral fusion inhibitor project, dose response (AID 652042); format: functional;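 further: potency for signal decrease meaning cytotoxicity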
[5] = blockers of HIV-1 ZM109 envelope-driven cell-cell fusion – HeLa effector, CEM target cells, luciferase, cherry-pick, dose response (AID 652058); format: functional, cell-based;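 further: luciferase signal from HIV-1 Env mediated cell-cell fusion of effector and target cells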
[6] = off-target signal loss in HeLa-CEM21 co-culture – HeLa F-luc CTL cells, cherry-picked, counter-screen for HIV-1 Env fusion inhibitor project, dose response (AID 652040); format: functional, cell-based;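 further: potency for signal decrease marking cytotoxic or nonspecific inhibition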
[7] = HIV-1 AD8 envelope cell-cell fusion blockers – cherry-pick, dose response (AID 652062); format: functional, cell-based;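 further: luciferase signal from cell-cell fusion driven by HIV-1 clade B AD8 Env; potency is for inhibitors of fusion seen as a drop in luminescence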
[8] = A549 cell cytotoxicity, dose response, cytotoxicity control, plate reader, cherry-pick, antagonist series (AID 743412); format: functional, cell-based
[9] = toxicity toward HepG2 liver cells – cell-based, plate reader, cherry-pick, antagonist series, cytotoxicity control, dose response (AID 743416); format: functional
[10] = blockers of bursicon-stimulated LGR2 cAMP reporter – cell-based, HEK293, CRE-luciferase reporter, cherry pick, set 2, dose response (AID 743343); format: functional;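 further: transfected cells were stimulated with diluted bursicon conditioned medium after compound addition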
[11] = blockade of melanocortin 4 receptor signaling – cell-based, plate reader, cherry pick, counter-screen for LGR2 antagonist project, dose response (AID 743444); format: functional;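 further: transfected HEK 293 cells stimulated with alpha-MSH peptide; potency of inhibitors of the alpha-MSH evoked signal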
[12] = viability loss in HEK293 cells – cell-based, plate reader, cherry-picked samples, cytotoxicity control, dose response (AID 743446); format: functional
[13] = IC50 of insulin release inhibition, rat insulinoma INS-1E line, 5 mM glucose, cell-based (AID 1117331); format: functional
[14] = general mammalian cell viability loss – inhibitor set, cherry-pick, set 2, cytotoxicity control for miR-122 modulator project, dose response (AID 720697); format: functional, cell-based
[15] = molecular target: T2, Long-chain-fatty-acid--AMP ligase FadD28 (Mycobacterium tuberculosis, UniProt P9WQ59); assay: Fluorescence polarization aasay to screen for inhibitors that compete for the binding of FadD28 to a bisubstrate Measured in Biochemical System Using Plate Reader - 2147-01_Inhibitor_Dose_CherryPick_Activity.; format: functional, Mycobacterium tuberculosis H37Rv
T2 sequence (P9WQ59 whole entry): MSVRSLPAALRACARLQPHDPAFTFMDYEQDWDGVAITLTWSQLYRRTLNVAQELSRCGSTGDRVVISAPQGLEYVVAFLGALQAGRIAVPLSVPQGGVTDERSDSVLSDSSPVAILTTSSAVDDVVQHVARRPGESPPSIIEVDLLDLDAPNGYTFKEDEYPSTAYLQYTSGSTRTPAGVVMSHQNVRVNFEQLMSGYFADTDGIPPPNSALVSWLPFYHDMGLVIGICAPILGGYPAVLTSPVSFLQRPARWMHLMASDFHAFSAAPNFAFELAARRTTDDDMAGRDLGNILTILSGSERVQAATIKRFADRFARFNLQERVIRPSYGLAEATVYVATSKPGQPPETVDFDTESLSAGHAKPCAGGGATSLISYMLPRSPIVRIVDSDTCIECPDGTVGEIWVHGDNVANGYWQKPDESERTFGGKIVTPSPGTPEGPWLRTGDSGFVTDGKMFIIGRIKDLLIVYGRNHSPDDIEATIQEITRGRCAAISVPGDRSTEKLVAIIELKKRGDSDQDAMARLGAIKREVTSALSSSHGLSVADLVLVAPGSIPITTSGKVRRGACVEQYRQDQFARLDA

[16] = Trypanosoma cruzi growth suppression in host cells – NIH3T3 host cells, beta-gal luminescence, confirmation (AID 2044); format: functional, cell-based;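 further: intracellular parasites grown in NIH/3T3 mouse fibroblasts as host cells; luminescent beta-galactosidase reporter signal from transgenic T. cruzi replicating inside host cells; inhibitors lower the luminescence signal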
[17] = NIH3T3 cell viability loss – ATP luminescence, mouse fibroblasts, counter-screen, dose response (AID 2010); format: functional, cell-based;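 further: cells exposed to compound for about 90 hours before reading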
[18] = Luminescence Cell-Based Dose Retest to Confirm Inhibitors of Cancer Stem Cells. [Related pubchem assays (depositor defined):AID2717, AID2721]; format: functional; conditions: Homo sapiens
[19] = molecular target: T3, Ubiquitin-conjugating enzyme E2 N (Homo sapiens, UniProt P61088); format: functional;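 further: Dose-response confirmation in a TR-FRET assay detecting UBC13-driven polyubiquitin chain formation, inhibition measured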
T3 sequence (P61088 whole entry): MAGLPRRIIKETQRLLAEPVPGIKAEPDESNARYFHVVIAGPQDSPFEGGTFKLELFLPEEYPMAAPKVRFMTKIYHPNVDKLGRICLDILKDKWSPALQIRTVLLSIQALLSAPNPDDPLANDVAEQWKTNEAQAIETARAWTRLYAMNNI

[20] = tested on: INS1; assay: INS-1E survival protection against cytokine death – cell-based, luminescence, retest, dose response (AID 449756); format: functional; conditions: Rattus norvegicus;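 further: cell death triggered by IL-1 beta plus TNF-alpha plus IFN-gamma mixture; protective hits raise ATP signal compared with cytokine alone wells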
[21] = molecular target: Arf-GAP with SH3 domain, ANK repeat and PH domain-containing protein 1 (Homo sapiens, UniProt Q9ULH1); format: functional;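 further: biochemical fluorescence polarization dose–response screen measuring inhibition of ASAP1; ASAP1 GAP domain stimulating GTP hydrolysis by truncated human ARF1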
[22] = molecular target: Paired box protein Pax-8 (Homo sapiens, UniProt Q06710); assay: PAX8 transcriptional activity inhibition in RMG-I – RMG-I cells, luciferase, cherry-pick, dose response (AID 687027); format: functional, cell-based;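 further: luciferase reporter driven by Pax8 target thyroperoxidase promoter measured by SteadyGlo luminescence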
[23] = A2780 cell killing – plate reader, dry powder samples, cytotoxicity control, dose response (AID 743046); format: functional, cell-based
[24] = OVCAR-3 cell viability loss – plate reader, dry powder samples, PAX8 inhibitor project, dose response (AID 743044); format: functional, cell-based
[25] = IGROV1 cell killing – plate reader, dry powder samples, PAX8 inhibitor project, dose response (AID 743043); format: functional, cell-based; conditions: IGROV-1
[26] = OVCAR8 cell viability loss – plate reader, dry powder samples, PAX8 project, dose response (AID 743197); format: functional, cell-based; conditions: OVCAR-8

Chain of Beta-galactosidase (Q8VNN2 whole entry): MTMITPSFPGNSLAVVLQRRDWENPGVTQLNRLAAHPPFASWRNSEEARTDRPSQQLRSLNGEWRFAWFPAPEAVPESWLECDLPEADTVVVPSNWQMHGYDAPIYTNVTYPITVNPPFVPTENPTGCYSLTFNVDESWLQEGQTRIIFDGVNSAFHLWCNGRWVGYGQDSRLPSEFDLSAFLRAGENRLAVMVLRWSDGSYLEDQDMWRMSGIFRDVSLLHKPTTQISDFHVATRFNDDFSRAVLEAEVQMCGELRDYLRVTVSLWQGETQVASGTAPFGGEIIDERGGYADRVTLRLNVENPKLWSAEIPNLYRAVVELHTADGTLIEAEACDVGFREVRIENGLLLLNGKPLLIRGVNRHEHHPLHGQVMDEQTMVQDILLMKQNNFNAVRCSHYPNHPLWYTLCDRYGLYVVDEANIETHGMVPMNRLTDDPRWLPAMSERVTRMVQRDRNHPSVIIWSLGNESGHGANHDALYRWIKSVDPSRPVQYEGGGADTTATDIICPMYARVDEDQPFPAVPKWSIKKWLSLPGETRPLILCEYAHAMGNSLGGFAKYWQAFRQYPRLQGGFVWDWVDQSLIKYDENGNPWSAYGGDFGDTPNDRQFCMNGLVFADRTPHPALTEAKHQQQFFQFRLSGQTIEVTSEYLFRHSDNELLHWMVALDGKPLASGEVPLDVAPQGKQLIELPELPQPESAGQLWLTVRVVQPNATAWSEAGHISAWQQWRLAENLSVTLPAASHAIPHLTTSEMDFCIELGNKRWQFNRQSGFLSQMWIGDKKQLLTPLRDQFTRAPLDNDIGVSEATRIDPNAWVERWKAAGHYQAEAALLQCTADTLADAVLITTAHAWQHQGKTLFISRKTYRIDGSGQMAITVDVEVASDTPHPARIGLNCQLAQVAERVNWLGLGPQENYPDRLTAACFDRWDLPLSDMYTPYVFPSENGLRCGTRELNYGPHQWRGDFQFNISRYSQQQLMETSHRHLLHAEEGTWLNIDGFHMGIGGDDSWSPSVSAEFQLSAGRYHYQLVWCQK
Chain of Arf-GAP with SH3 domain, ANK repeat and PH domain-containing protein 1 (Q9ULH1 whole entry, the tested form may be a part): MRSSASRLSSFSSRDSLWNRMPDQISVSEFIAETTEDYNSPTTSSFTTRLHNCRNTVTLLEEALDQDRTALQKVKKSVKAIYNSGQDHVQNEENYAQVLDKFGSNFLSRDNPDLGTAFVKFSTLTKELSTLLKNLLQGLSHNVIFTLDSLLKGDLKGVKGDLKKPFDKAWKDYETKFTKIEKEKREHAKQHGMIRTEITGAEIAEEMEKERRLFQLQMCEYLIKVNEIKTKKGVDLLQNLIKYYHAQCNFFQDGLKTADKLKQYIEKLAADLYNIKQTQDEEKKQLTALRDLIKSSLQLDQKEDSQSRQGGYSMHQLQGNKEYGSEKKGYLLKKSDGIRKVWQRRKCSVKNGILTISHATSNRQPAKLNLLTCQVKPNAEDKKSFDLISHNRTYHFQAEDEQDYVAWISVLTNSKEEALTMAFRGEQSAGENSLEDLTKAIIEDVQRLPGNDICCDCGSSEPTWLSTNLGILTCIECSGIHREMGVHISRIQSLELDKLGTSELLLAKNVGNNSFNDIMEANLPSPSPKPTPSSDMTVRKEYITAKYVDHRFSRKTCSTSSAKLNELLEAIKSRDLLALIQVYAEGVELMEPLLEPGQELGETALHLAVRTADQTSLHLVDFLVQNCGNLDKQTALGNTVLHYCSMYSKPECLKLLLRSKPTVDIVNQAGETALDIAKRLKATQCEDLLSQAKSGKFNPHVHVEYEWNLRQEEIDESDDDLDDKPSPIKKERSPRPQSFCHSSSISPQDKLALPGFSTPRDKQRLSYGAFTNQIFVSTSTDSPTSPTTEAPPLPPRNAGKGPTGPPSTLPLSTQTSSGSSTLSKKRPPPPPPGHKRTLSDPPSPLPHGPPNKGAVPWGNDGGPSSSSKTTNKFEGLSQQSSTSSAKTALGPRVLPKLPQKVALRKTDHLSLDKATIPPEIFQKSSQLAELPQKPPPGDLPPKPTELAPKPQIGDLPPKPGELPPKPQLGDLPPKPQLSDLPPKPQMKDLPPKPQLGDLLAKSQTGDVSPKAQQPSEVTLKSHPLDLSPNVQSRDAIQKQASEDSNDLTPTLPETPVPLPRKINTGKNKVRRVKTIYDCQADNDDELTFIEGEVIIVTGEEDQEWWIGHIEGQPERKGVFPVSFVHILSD
Chain of Paired box protein Pax-8 (Q06710 whole entry): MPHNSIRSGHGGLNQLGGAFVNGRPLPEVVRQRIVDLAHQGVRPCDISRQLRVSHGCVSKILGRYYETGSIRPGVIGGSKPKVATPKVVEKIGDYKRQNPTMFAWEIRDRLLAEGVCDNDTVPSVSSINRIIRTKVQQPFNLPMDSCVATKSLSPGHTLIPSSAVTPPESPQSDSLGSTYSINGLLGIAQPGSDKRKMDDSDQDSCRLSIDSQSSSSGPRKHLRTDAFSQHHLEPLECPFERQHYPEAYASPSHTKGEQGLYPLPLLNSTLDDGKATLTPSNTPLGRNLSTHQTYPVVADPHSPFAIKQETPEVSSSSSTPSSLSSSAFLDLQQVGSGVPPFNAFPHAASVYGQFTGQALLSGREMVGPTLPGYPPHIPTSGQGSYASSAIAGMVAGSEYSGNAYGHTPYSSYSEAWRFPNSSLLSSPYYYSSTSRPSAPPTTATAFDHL

Structure (SMILES): CN1CCN(C(=O)/C=C/c2ccc(Cl)cc2)CC1
- IC50 [1]: > 80 µM (inactive)

Structure (SMILES): COc1ccc(C(=O)N/N=C/c2cccnc2)cc1
- IC50 [2]: > 100 µM (active)

Structure (SMILES): CC(C)c1ccc(OCCCN2CCC(C(O)(c3ccccc3)c3ccccc3)CC2)cc1
- AC50 [3]: 9.63 µM (active)
- AC50 [4]: 7.21 µM (active)
- AC50 [5]: 9.88 µM (active)
- AC50 [6]: 7.88 µM (active)
- AC50 [7]: 9.48 µM (active)
- AC50 [8]: 9.56 µM (active)
- AC50 [9]: 7.6 µM (active)
- AC50 [10]: 6.8 µM (active)
- AC50 [11]: 5.65 µM (active)
- AC50 [12]: 14 µM (active)

Structure (SMILES): CN1C(=O)CC[C@H]1c1cccnc1 [COTININE]
- IC50 [13]: > 33.3 µM (inactive)

Structure (SMILES): COc1ccc(N2CCN(C(=O)c3cc4c(s3)-c3ccccc3OC4)CC2)cc1
- IC50 [1]: > 80 µM (inactive)

Structure (SMILES): Cc1cc(C(C)(C)C)oc1C(=O)N(CC(=O)NC1CCCC1)Cc1ccc(Cl)cc1
- AC50 [3]: 6.45 µM (active)
- AC50 [4]: 49.5 µM (active)
- AC50 [6]: > 70 µM (inactive)

Structure (SMILES): CO[C@@H]1CN(C)C(=O)c2ccc(NC(C)=O)cc2OC[C@@H](C)N(C(=O)c2ccccc2F)C[C@H]1C
- AC50 [14]: 147 nM (active)

Structure (SMILES): COc1ccc(C(=O)NCc2ccc(C)cc2)cc1S(=O)(=O)N1CCOCC1
- AC50 [15]: 64.8 µM (active)

Structure (SMILES): CCN1CCN(c2ccc(S(=O)(=O)N3CCOCC3)cc2NC(=O)/C=C/c2ccc(C)cc2)CC1
- IC50 [1]: > 80 µM (inactive)

Structure (SMILES): OCCNc1nc(Nc2ccc(Cl)c(Cl)c2)nc2ccccc12
- EC50 [16]: 464 nM (active)
- EC50 [17]: > 30 µM (not active)
- AC50 [18]: 2.43 µM (active)
- IC50 [19]: > 20 µM (inactive)
- AC50 [20]: 13.4 µM (active)
- IC50 [21]: 55.3 µM (inactive)

Structure (SMILES): C[C@@H]1CCCCO[C@H](CN(C)Cc2ccc(C(F)(F)F)cc2)[C@H](C)CN([C@@H](C)CO)C(=O)c2cc(NC(=O)Nc3ccc4c(c3)OCO4)ccc2O1
- AC50 [22]: 3.34 µM (active)
- AC50 [23]: 42.2 µM (active)
- AC50 [24]: 48.7 µM (active)
- AC50 [25]: 40.9 µM (active)
- AC50 [26]: 36.8 µM (active)
